Laboratory results from US20040127519A1 (Pharmacia Corporation, priority 2002, published 2004).

target: Recombinant MAPKAPK2 (Homo sapiens, UniProt P49137); assay: Determination of MK-2 IC50 (HSP-peptide phosphorylation, anion exchange resin capture assay); format: biochemical; conditions: MK-2 Avg. IC50, Table I, aminocyanopyridine MK-2 inhibitors
Procedure: The phosphorylation of HSP-peptide ([…]) by MAPKAPK2 was measured using an anion exchange resin capture assay method. […] The reaction was terminated and [γ^33P]ATP was removed from solution by the addition of 150 μl of AG 1×8 ion exchange resin in 900 mM sodium formate pH 3.0. A 50 μl aliquot of head volume was removed from the quenched reaction mixture and added to a 96-well plate, 150 μl of Microscint-40 (Packard) was added and the amount of phosphorylated-peptide was determined. Allow the Microscint to sit in the plates for 60 minutes prior to counting.
Compounds are evaluated as potential inhibitors of the MK2 kinase by measuring their effects on MK2 phosphorylation of the peptide substrate. Compounds may be screened initially at two concentrations prior to determination of IC50 values. Screening results are expressed as percent inhibition at the concentrations of compound tested. For IC50 value determinations, compounds are tested at six concentrations in ten-fold serial dilutions with each concentration tested in triplicate. Results are expressed as IC50 values in micromolar. The assay is performed at a final concentration of 2% DMSO.

Chain of Recombinant MAPKAPK2 (P49137 whole entry, species assumed): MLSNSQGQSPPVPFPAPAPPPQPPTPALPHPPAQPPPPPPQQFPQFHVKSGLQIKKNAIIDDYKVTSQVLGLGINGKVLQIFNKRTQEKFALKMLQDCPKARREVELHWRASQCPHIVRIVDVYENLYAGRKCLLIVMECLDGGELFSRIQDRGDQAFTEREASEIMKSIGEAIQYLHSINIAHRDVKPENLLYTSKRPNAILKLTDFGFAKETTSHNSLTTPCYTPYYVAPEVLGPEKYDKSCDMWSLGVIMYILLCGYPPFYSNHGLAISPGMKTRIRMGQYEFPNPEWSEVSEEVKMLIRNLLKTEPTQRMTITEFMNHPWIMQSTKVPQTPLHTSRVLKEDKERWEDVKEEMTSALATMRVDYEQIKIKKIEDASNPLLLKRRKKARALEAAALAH

SMILES | IC50 [µM]
N#Cc1c(N)nc2c(c1-c1ccncc1)CCc1n[nH]cc1-2 [Example 103] | 94.3
N#Cc1c(-c2cccc(F)c2)cc(-c2ccc(O)cc2)nc1N [Example 104] | 96
N#Cc1c(N)nc2c(c1-c1ccccc1OC(F)F)CCc1[nH]ncc1-2 [Example 105] | 96.1
N#Cc1c(-c2ccco2)cc(-c2ccsc2)nc1N [Example 106] | 97.3
COc1ccc(-c2cc(-c3cccc(F)c3)c(C#N)c(N)n2)cc1 [Example 107] | 97.3
N#Cc1c(-c2ccccc2B(O)O)cc(-c2ccco2)nc1N [Example 108] | 99.6
CCCc1nc(N)c(C#N)c(N)c1C#N [Example 109] | 99.8
C#CCOCC1Cc2c(nc(N)c(C#N)c2N)O1 (stereo not shown) [Example 110] | 105
N#Cc1c(N)nc2c(c1N)CC(CO)O2 (stereo not shown) [Example 111] | 106
N#Cc1c(-c2ccc(C(F)(F)F)cc2)cc(-c2ccco2)nc1N [Example 112] | 107
CC1(C)Cc2n[nH]cc2-c2nc(N)c(C#N)c(-c3ccco3)c21 [Example 114] | 109
N#Cc1c(-c2ccccc2F)cc(-c2ccco2)nc1NCC(=O)O [Example 115] | 114
C=CCOCC1Cc2c(nc(N)c(C#N)c2N)O1 (stereo not shown) [Example 116] | 118
CC1Cc2c(nc(N)c(C#N)c2-c2ccco2)-c2ccccc21 (stereo not shown) [Example 117] | 119
COCC1Cc2c(nc(N)c(C#N)c2N)O1 (stereo not shown) [Example 118] | 119
N#Cc1c(-c2ccco2)cc(-c2c[nH]c3ccccc23)nc1N [Example 119] | 120
N#Cc1c(-c2ccco2)cc(-c2ccc(-n3ccnc3)cc2)nc1N [Example 120] | 121
N#Cc1c(-c2ccco2)cc(-c2ccc(O)cc2)nc1N [Example 121] | 122
N#Cc1c(N)nc2c(c1-c1ccco1)C1CCC2C1 (stereo not shown) [Example 122] | 122
CC(C)OCC1Cc2c(nc(N)c(C#N)c2N)O1 (stereo not shown) [Example 123] | 125
N#Cc1c(-c2ccco2)cc(-c2cccc(B(O)O)c2)nc1N [Example 124] | 126
N#Cc1c(-c2ccc(Br)cc2)cc(-c2ccco2)nc1N [Example 126] | 130
N#Cc1c(N)nc2c(c1N)CC(COC(F)(F)C(F)F)O2 (stereo not shown) [Example 127] | 131

SMILES | IC50 [µM]
N#Cc1c(-c2ccc(C(F)(F)F)cc2F)cc(-c2ccco2)nc1N [Example 128] | 133
COc1ccccc1-c1c(C#N)c(N)nc2c1CCc1n[nH]cc1-2 [Example 129] | 136
CC1Cc2n[nH]cc2-c2nc(N)c(C#N)c(-c3ccccc3F)c21 (stereo not shown) [Example 130] | 142
CCc1c(C#N)c(N)nc2[nH]nc(N)c12 [Example 131] | 146
N#Cc1c(-c2ccco2)cc(-c2ccccn2)nc1N [Example 132] | 149
N#Cc1c(-c2ccco2)cc(-c2cccc3cccc(O)c23)nc1N [Example 133] | 153
N#Cc1c(N)nc2c(c1-c1ccc(C(=O)O)cc1)CCc1[nH]ncc1-2 [Example 134] | 155
N#Cc1c(-c2ccco2)cc(-c2ccc(Cl)c(Cl)c2)nc1N [Example 135] | 156
N#Cc1c(-c2ccco2)cc(-c2ccc3c(c2)Nc2ccccc2S3)nc1N [Example 136] | 158
N#Cc1c(N)nc2ccccc2c1C(=O)O [Example 137] | 161
N#Cc1c(-c2ccccc2F)cc(-c2ccco2)nc1Nc1ccccc1 [Example 138] | 162
N#Cc1c(-c2cccc(F)c2)cc(-c2ccco2)nc1N [Example 139] | 164
N#Cc1c(-c2ccc(F)cc2)cc(-c2ccco2)nc1N [Example 140] | 165
CC(C)(C)OCC1Cc2c(nc(N)c(C#N)c2N)O1 (stereo not shown) [Example 141] | 167
N#Cc1c(-c2ccco2)cc(-c2nccs2)nc1N [Example 142] | 167
N#Cc1c(-c2ccccc2F)cc(-c2ccco2)nc1N1CCCCC1 [Example 143] | 176
N#Cc1c(-c2ccco2)cc(-c2ccc(Cl)cc2)nc1N [Example 144] | 182
COc1ccccc1-c1cc(-c2ccc(O)cc2)nc(N)c1C#N [Example 145] | 183
N#Cc1c(-c2ccccc2O)cc(-c2ccco2)nc1N [Example 146] | 185
COC(=O)c1cccc(-c2c(C#N)c(N)nc3c2CCc2[nH]ncc2-3)c1 [Example 147] | 191
Cc1ccc(-c2cc(-c3ccccc3Cl)c(C#N)c(N)n2)o1 [Example 148] | 192
COC(=O)c1ccc(-c2cc(-c3ccco3)c(C#N)c(N)n2)cc1 [Example 150] | 199

tested on: U937 cell TNFα release; assay: U937 Cell TNFα Release Assay (LPS-stimulated, TNFα ELISA); format: cell-based; conditions: Homo sapiens, U-937, U937 cells
Procedure: U937 Cell TNFα Release Assay
The human monocyte-like cell line, U937 (ATCC #CRL-1593.2), is cultured in RPMI1640 media with 10% heat-inactivated fetal calf serum (GIBCO), glutamine and pen/strep at 37° C. and 5% CO2. Differentiation of U937 to monocytic/macrophage-like cells is induced by the addition of phorbol12-myristate 13-acetate (Sigma) at final concentration of 20 ng/ml to a culture of U937 cells at ˜0.5 million cells/ml and incubated for 24 hrs. The cells are centrifuged, washed with PBS and resuspended in fresh media without PMA and incubated for 24 hrs. Cells adherent to the culture flask are harvested by scraping, centrifugation, and resuspended in fresh media to 2 million cells/ml, and 0.2 ml is aliquoted to each of 96 wells in flat-bottom plate. Cells are then incubated for an additional 24 hrs to allow for recovery. […]
ELISA plates (NUNC-Immuno™ Plate Maxisorb™ Surface) were coated with purified mouse monoclonal IgG1 anti-human TNFα antibody (R&D Systems #MAB610; 1.25 ug/ml in sodium bicarbonate pH 8.0, 0.1 ml/well) and incubated at 4° C. […] Enzymatic conversion of ABTS to colored product was measured after 5-30 minutes using a SpectroMax 340 spectrophotometer (Molecular Devices) at 405 nm. TNF levels were quantitated from a recombinant human TNFα (R&D Systems #210-TA-010) standard curve using a quadratic parameter fit generated by SoftMaxPRO software. […]

SMILES | IC50 [µM]
C=CCNc1sc2c(-c3ccc(Br)cc3)c(C#N)c(N)nc2c1C#N [Example 224, 2-(allylamino)-5-amino-7-(4-bromophenyl)thieno[3,2-b]pyridine-3,6-dicarbonitrile] | 2.9
N#Cc1c(N)nc2c(c1-c1cccnc1)CCCCCC2 [Example 225, 2-amino-4-pyridin-3-yl-5,6,7,8,9,10-hexahydrocycloocta[b]pyridine-3-carbonitrile] | 6.9

tested on: TNFα production; assay: Lipopolysaccharide (LPS)-induced TNFα production in rats (Rat LPS assay, serum TNFα ELISA); format: in vivo, Lewis rats; conditions: 20 mpk (IP)

SMILES | inhibition at 20 mg/kg [%]
C=CCNc1sc2c(-c3ccc(Br)cc3)c(C#N)c(N)nc2c1C#N [Example 224, 2-(allylamino)-5-amino-7-(4-bromophenyl)thieno[3,2-b]pyridine-3,6-dicarbonitrile] | 60
N#Cc1c(N)nc2c(c1-c1cccnc1)CCCCCC2 [Example 225, 2-amino-4-pyridin-3-yl-5,6,7,8,9,10-hexahydrocycloocta[b]pyridine-3-carbonitrile] | 88
